Test [1] addresses T1, glycine receptor of the NMDA receptor complex (Rattus norvegicus, UniProt P35439).
T1 construct: Freshly dissected cortices and hippocampi are homogenized in 0.32 M sucrose; from tissue; host or cells: rat cerebral cortex and hippocampus, synaptic membranes (male Sprague-Dawley)
As to the kind of experiment: [3H]-glycine binding assay (Test A; in-vitro glycine receptor assay). Also on record: species or system rat (male Sprague-Dawley). How it is done: The actions of compounds according to the invention as antagonists at the giycine receptor of the NMDA receptor complex can be shown by one or more standard tests such as the [^3 H]-glycine binding assay (Test A) and by tests in vivo such as ischemia induced by carotid occlusion in the gerbil model (Test B). In addition to these tests, compounds of the invention are assayed in the red nucleus test (Test C) and in the Rat Middle Cerebral Artery test (Test D). These tests confirm that compounds of the invention are NMDA receptor antagonists in vitro and in vivo.
In the [^3 H]-glycine binding assay, neuronal synaptic membranes are prepared from adult (about 250 g) male Sprague-Dawley rats. Freshly dissected cortices and hippocampi are homogenized in 0.32 M sucrose (110 mg/mL). Synaptosomes are isolated by centrifugation (1000 xg, 10 min), the supernatant is pelleted (20,000 xg, 20 min) and resuspended in double-distilled water. The suspension was centrifuged for 20 minutes at 8,000 xg. The resulting supernatant and buffy coat are washed twice (48,000 xg, 10 mins, resuspension in double-deionized water). The final pellet is quickly frozen (dry ice/ethanol bath) under double-deionized water and stored at -70° C.
On the day of the experiment, thawed synaptic membranes are homogenized with a Brinkmann Polytron (tm, Brinkmann Instruments, Westbury, N.Y.) tissue homogenizer in 50 millimolar tris(hydroxymethyl)aminomethane citrate, pH 7.1. The membranes are incubated with 0.04% Sufact-AMPS X100 (tm, Pierce, Rockford, Ill.) in buffer for 20 minutes at 37° C. and washed six times by centrifugation (48,000 xg, 10 min) and resuspended in buffer. The final pellet is homogenized at 200 mg wet weight/mL of the buffer for the binding assay.
For [^3 H]-glycine binding at the N-methyl-D-aspartate receptor, 20 nanomolar [^3 H]-glycine (40-60 Ci/mmol, New England Nuclear, Boston, Mass.) is incubated with the membranes suspended in 50 millimolar tris (hydroxymethyl)aminomethane citrate, pH 7.1 for 30 minutes at 4° C. Glycine, 1 millimolar, is used to define the nonspecific binding. Bound [^3 H]-glycine is isolated from free using a Brandel (Biomedical Research and Development Laboratories, Gaithersburg, Md.) cell harvester for vacuum filtration over glass fiber filters (Whatman GF/B from Brandel, Gaithersburg, Md.) presoaked in 0.025% polyethylenimine. The samples retained on the glass fiber filters are rinsed 3 times with a total of 2.5 mL ice cold buffer. Radioactivity is estimated by liquid scintillation counting. IC50 values are obtained from a least-squares regression of a logit-log transformation of the data. […] The other examples disclosed herein are glycine antagonists.

For test [2], the system named is NMDA-induced excitatory response of red nucleus cells. Description: Red Nucleus Test (Test C). It counts as in vivo. The note with it: Rattus norvegicus, iv, read-out: ID50 (NMDA-induced excitatory response of red nucleus cells). How it is done:
The purpose of this test is to determine the effects of intravenously administered glycine antagonists on the NMDA-induced excitatory response of red nucleus cells.
The procedure for the red nucleus test is as follows. Rats are anesthetized with chloral hydrate (400 mg/kg ip) and the femoral vein is catheterized for iv drug administration. Five-barrel micropipettes are stereotaxically positioned in the red nucleus. Typically, three to four of the five barrels are filled as follows: the recording barrel with 2M potassium citrate, the current balancing barrel with 4M NaCl, the drug barrel with 25 mM NMDA, and another drug barrel with 2.5 mM quisqualic acid (QA is only used in selectivity studies). NHDA is iontophoretically applied with an ejection current that is adjusted depending on the sensitivity of each individual red nucleus cell. The NMDA is cycled on and off (usually 30-60 sec. on and 60-120 sec. off) and the firing rate of the cell during each period is recorded. Once the baseline firing rate of the cell has been established, the test drug is administered iv. The effect of the drug on the NMDA-induced excitatory response of the red nucleus cell can be both qualitatively and quantitatively evaluated from the recordings and the raw data accumulated.

The test system of test [3] is neuronal damage in the hippocampus. Description: gerbil ischemic model, bilateral carotid occlusion (Test B). It counts as in vivo, Mongolian gerbils. The note with it: 10 mg/Kg ip, 45 minutes before and 5 minutes after occlusion. How it is done: When testing in vivo using the gerbil ischemic model, adult female Mongolian gerbils (50-70 g) are anesthetized with 2 to 3% halothane. The bilateral common carotid arteries at the neck are exposed and occluded with microaneurysm clips. After 10 min (unless specified), the clips are removed and the blood flow through the carotid arteries is restored and the skin is sutured. Test compounds are administered intraperitoneally both pre- and post-occlusion, for example 45 minutes before and 5 minutes after occlusion of the carotid arteries. Sham-operated animals are treated in the same manner except that the arteries are not clamped. Gross behavioral observations along with motor activity are recorded for 2 hr on the first (24 hr) day following the occlusion. After 4 days, subjects are sacrificed (decapitation), brains are removed, fixed, sectioned and stained with hematoxylin/eosin and cresyl violet.
The brain sections are rated for neuronal damage in the hippocampus using the following rating scale:
1=slight damage (up to 25%)--restricted to CAI/subiculum border
2=moderate damage (up to 50%)--obvious damage, restricted to less than half of CA1 field […]
Sections (7 micron) are evaluated from each brain. […] The average brain damage rating score for each group is recorded, and the damage scores of the drug treated group are compared to the vehicle-treated group using Wilcoxon-Rank Sum test.

The mark [4] stands for this setting: 20 nanomolar [3H]-glycine, rat synaptic membranes, pH 7.1, 4° C., read-out: IC50 in the [3H]-glycine binding assay.
Setting [5] is: read-out: IC50 in the [3H]Gly test.

The structures appear in SMILES notation. Counter-ions that a name gives are not always drawn. Like-named read-outs stand apart in the source and are kept apart here.

With `O=c1c2ccc(Cl)cc2[nH]c2c(=O)n(-c3ccccc3)nc(O)c12` [Example 5, 7-Chloro-1-hydroxy-3-phenyl-3,4,5,10-tetrahydropyridazino[4,5-b]-quinoline-4,10-dione, choline salt], the “activity in the in-vitro glycine receptor assay” value in test [1] (result in words) is “inactive”.
As for `O=C(NCCn1nc(O)c2[nH]c3cc(Cl)ccc3c(=O)c2c1=O)c1ccccc1` [2-ethylbenzamidederivative], in test [1] (result in words), the “glycine receptor antagonist activity” value is given as “active as a glycine receptor antagonist”.
In the case of `Cc1ccc(-n2nc(O)c3c(=O)c4ccc(Cl)cc4[nH]c3c2=O)cc1` [Example 18, 7-Chloro-1-hydroxy-3-(4-methylphenyl)-3,4,5,10-tetrahydropyridazino[4,5-b]quinoline-4,10-dione], the “activity in the in-vitro glycine receptor assay” value in test [1] (result in words) is “inactive”.
As to `CC(C)c1ccc(-n2nc(O)c3c(=O)c4ccc(Cl)cc4[nH]c3c2=O)cc1` [Example 20, 7-Chloro-1-hydroxy-3-(4-isopropylphenyl)-3,4,5,10-tetrahydropyridazino[4,5- ]-quinoline-4,10-dione], in test [1] (result in words), the “activity in the in-vitro glycine receptor assay” value is “inactive”.
With `C/C(=C\C(N)C(=O)O)CP(=O)(O)O` (stereo not shown) [CGP 37849], the ED50 in test [2] turned out to be 1.7 mg/kg.
Turning to `O=c1c2ccc(Cl)cc2[nH]c2c(O)nn(-c3ccc(O)cc3)c(=O)c12` [Example 10, 7-Chloro-4-hydroxy-2-(4-hydroxyphenyl)-1,2,5,10-tetrahydropyridazino[4,5-b]quinoline-1,10-dione], the IC50 in test [1] (setting [4]) was found to be 0.12 µM. The “neuroprotection (relative to sham-operated control)” value in test [3] is given as “over 80%”.
On to `NC1CCN(O)C1=O` (stereo not shown) [HA-966], for which the ED50 in test [2] (reference agents) came to 7.9 mg/kg.
With `CC(=O)OCCn1nc(O)c2c(=O)c3ccc(Cl)cc3[nH]c2c1=O` [3-(2-Acetoxyethyl), 3-(2-Acetoxyethyl)7-chloro-4-hydroxy-1,2,5,10-tetrahydropyridazino[4,5-]quinoline-1,10-dione], the IC50 in test [1] (setting [5]) was more than 100 µM.
With `O=c1c2ccc(Cl)cc2[nH]c2c(=O)n(CCO)nc(O)c12` [Example 1, 7-Chloro-1-hydroxy-3-(2-hydroxyethyl)-3,4,5,10-tetrahydropyridazino[4,5-b]quinoline-4,10-dione], the IC50 in test [1] (setting [4]) turned out to be 40 µM.
In the case of `COc1ccc(-n2nc(O)c3c(=O)c4ccc(Cl)cc4[nH]c3c2=O)cc1` [Example 7, 7-Chloro-1-hydroxy-3-(4-methoxyphenyl)-3,4,5,10-tetrahydropyridazino[4,5-b]quinoline-4,10-dione], in test [1] (setting [5]), the IC50 is more than 100 µM. Moreover, the “activity in the in-vitro glycine receptor assay” value in test [1] (result in words) is “inactive”.
On the same counts, the results for `O=c1c2ccc(Cl)cc2[nH]c2c(=O)n(-c3ccc(O)cc3)nc(O)c12` [Example 9, 7-Chloro-1-hy droxy-3-(4-hydroxyphenyl)-3,4,5,10-tetrahydropyridazino[4,5-b]quinoline-4,10-dione] are more than 100 µM and “inactive”.
As to `O=C1c2ccccc2C(=O)N1CCn1nc(O)c2[nH]c3cc(Cl)ccc3c(=O)c2c1=O` [Example 4, 7-Chloro-4-hydroxy-2-(2-phthalimidoethyl)-1,2,5,10-tetrahydropyridazino[4,5-b]quinoline-1,10-dione], in test [3], the “neuroprotection (relative to sham-operated control)” value was 35%.
Take `O=c1c2ccc(Cl)cc2[nH]c2c(=O)n(-c3ccc(Cl)cc3)nc(O)c12` [Example 16, 7-Chloro-1-hydroxy-3-(4-chlorophenyl)-3,4,5,10-tetrahydropyridazino[4,5-b]quinoline-4,10-dione]: in test [1] (result in words), the “activity in the in-vitro glycine receptor assay” value was “inactive”.

The term IC50 denotes the point on the concentration scale where inhibition reaches its midpoint.

Source of the values: patent publication US5744471A, “Pyridazion quinoline compounds” (Zeneca Limited, priority 1993, dated 1998).
